The test system of one series is Hep G2. Nature of the series: killing of cultured cells, Hep G2. The format is cell-based. Details: key to cells killed by treatment: “+” indicates that the cells were killed by treatment; “−” indicates that they were not; “+/−” indicates a slow marginal response seen only in a few special cases with fibroblasts experimentally transformed by introduction of the ras oncogene. The conditions noted are these: Hep G2; compound at two to fourfold above its threshold killing concentration. An excerpt:
(§1) Table 1: Summarized are the responses of cells in culture to killing by example members of the family of blocked lipoate derivatives that are the object of this invention as well as one control compound (dihydroxyoctanoic acid). At right is indicated the specific cell line followed by the tissue of origin of the cell line. Across the top are listed the specific compounds tested. Each blocked lipoate derivative was used at two to fourfold above its threshold killing concentration. [These concentrations range form 0.15 mM (60 ug/ml or 60 mg/kg) to 2.5 mM (800 ug/ml or 800 mg/kg) (see EXAMPLE 11).] […] “+/−” indicates a slow marginal response seen only in a few special cases with fibroblasts experimentally transformed by introduction of the ras oncogene (EXAMPLE 10).
(§2) First, each cell type to be tested was plated at low densities in the wells of a standard 6×24 well tissue culture plate. (Multiple wells are seeded for each cell type.)
(§3) Second, the cells were allowed to grow to moderate densities. Transformed cells are in contact and non-transformed cells are contact-inhibited under these conditions.
(§4) Third, the lipoate derivatives to be tested were added to individual wells. In these experiments each compound was added at two to fourfold above the threshold killing concentration for cancer cells (EXAMPLE 11).
(§5) Fourth, cells were monitored over the next several days.

The subject of the next series is LnCap (Prostate). Nature of the series: killing of cultured cells, LnCap. The conditions noted are these: compound at two to fourfold above its threshold killing concentration. On the set-up: key: “+” indicates that the cells were killed by treatment; “−” indicates that they were not; “+/−” indicates a slow marginal response seen only in a few special cases with fibroblasts experimentally transformed by introduction of the ras oncogene. It counts as cell-based.
Excerpt: as §1, §2, §3, §4, §5

The subject of another series is B16 (Skin). Briefly: killing of cultured cells, B16. It counts as cell-based. Particulars: compound at two to fourfold above its threshold killing concentration. Details: key: “+” indicates that the cells were killed by treatment; “−” indicates that they were not; “+/−” indicates a slow marginal response seen only in a few special cases with fibroblasts experimentally transformed by introduction of the ras oncogene.
Excerpt: as §1, §2, §3, §4, §5

The test system of the next series is HeLa (Cervix). Briefly: killing of cultured cells, HeLa. On the set-up: key to cells killed by treatment: “+” indicates that the cells were killed by treatment; “−” indicates that they were not; “+/−” indicates a slow marginal response seen only in a few special cases with fibroblasts experimentally transformed by introduction of the ras oncogene. The conditions noted are these: Cervix, compound at two to fourfold above its threshold killing concentration. It counts as cell-based.
Excerpt: as §1, §2, §3, §4, §5

In another series the test system is SW480 (Colon). Briefly: killing of cultured cells, SW480. Particulars: compound at two to fourfold above its threshold killing concentration. On the set-up: key: “+” indicates that the cells were killed by treatment; “−” indicates that they were not; “+/−” indicates a slow marginal response seen only in a few special cases with fibroblasts experimentally transformed by introduction of the ras oncogene. It counts as cell-based.
Excerpt: as §1, §2, §3, §4, §5

A further series has as its system RD (Embryo). Nature of the series: killing of cultured cells, RD. The conditions noted are these: RD, Embryo; compound at two to fourfold above its threshold killing concentration. Details: key to cells killed by treatment: “+” indicates that the cells were killed by treatment; “−” indicates that they were not; “+/−” indicates a slow marginal response seen only in a few special cases with fibroblasts experimentally transformed by introduction of the ras oncogene. It counts as cell-based.
Excerpt: as §1, §2, §3, §4, §5

Another series concerns Saos 2 (Bone). Briefly: killing of cultured cells, Saos 2. The format is cell-based. On the set-up: key: “+” indicates that the cells were killed by treatment; “−” indicates that they were not; “+/−” indicates a slow marginal response seen only in a few special cases with fibroblasts experimentally transformed by introduction of the ras oncogene. Particulars: compound at two to fourfold above its threshold killing concentration.
Excerpt: as §1, §2, §3, §4, §5

Another series concerns A549 (Lung). Briefly: killing of cultured cells, A549. The format is cell-based. Details: key to cells killed by treatment: “+” indicates that the cells were killed by treatment; “−” indicates that they were not; “+/−” indicates a slow marginal response seen only in a few special cases with fibroblasts experimentally transformed by introduction of the ras oncogene. The conditions noted are these: A549, Lung; compound at two to fourfold above its threshold killing concentration.
Excerpt: as §1, §2, §3, §4, §5

The next series deals with MCF 7 (Breast). Briefly: killing of cultured cells, MCF 7. Particulars: compound at two to fourfold above its threshold killing concentration. The format is cell-based. Details: key: “+” indicates that the cells were killed by treatment; “−” indicates that they were not; “+/−” indicates a slow marginal response seen only in a few special cases with fibroblasts experimentally transformed by introduction of the ras oncogene.
Excerpt: as §1, §2, §3, §4, §5

The test system of the next series is cancer cells in culture. Briefly: threshold killing concentration and dose response in cultured cells. The format is cell-based. The conditions noted are these: for threshold killing concentration: approximate center of a range extending two to threefold. From the text: First, each compound killed cancer cells in culture at or above a relatively narrow, specific concentration range, but not below. The threshold concentrations given below represent the approximate center of this range which extended roughly two to threefold. […] Below these saturation ranges, sensitive cells survived and grew. They could be removed and replated to grow, apparently indefinitely, under these conditions. […] This was a highly unusual dose/response profile. The threshold killing concentrations (ranges) varied between individual compounds. Examples of these threshold killing concentrations were as follows: bis-benzoyl lipoate (EXAMPLE 3) 60 mg/liter (60 mg/kg), monoacetyl lipoate (EXAMPLE 4) 100 mg/liter (100 mg/kg); bis-acetyl lipoate (EXAMPLE 2) 600 mg/liter (600 mg/kg).
These changes were ultimately followed by cell death if treatment was continued. However, these morphological changes were reversed, and the cells recovered, if the lipoate derivative was removed during this initial exposure. As with the dose/response profile of the preceeding paragraph, this reversible induction of morphological change followed by commitment to cell death is highly idiosyncratic. The discovery that this behavior was shown by all tested members of the class of compounds that are the object of this invention was, again, very strong evidence that these compounds are, in fact, a functionally coherent class.

The test system of another series is C57/BL mice. Briefly: nonspecific toxicity by intraperitoneal injection. The conditions noted are these: mouse, in vivo, ip. As to the method: (§6) (All studies described in this section were carried out by intraperitoneal (IP) injection into C57/BL mice.)
A short description of series [1]: nonspecific toxicity by intraperitoneal injection. The conditions noted are these: C57/BL, mouse, in vivo, ip. As to the method: as §6
A further series deals with NIH 3T3 ras transformed. Nature of the series: killing of cultured cells, ras-transformed NIH 3T3 (T24). The format is cell-based. On the set-up: key to cells killed by treatment: “+” indicates that the cells were killed by treatment; “−” indicates that they were not; “+/−” indicates a slow marginal response seen only in a few special cases with fibroblasts experimentally transformed by introduction of the ras oncogene. Particulars: NIH 3T3 ras transformed; compound at two to fourfold above its threshold killing concentration.
Excerpt: as §1, §2, §3, §4, §5
NIH-3T3 cells are relatively normal, noncancerous cells. However, if an activated allele of the ras oncogene is introduced into these cells they become highly malignant (cancerous) as assessed by several assays (REFERENCE).

The test system of another series is B-16 melanoma. Nature of the series: B-16 system, subcutaneous tumors. The format is in vivo, mouse. The conditions noted are these: 100 mg/kg twice daily, started at tumors ca. 3-5 mm. From the text: The B-16 melanoma strain was introduced either subcutaneously or intraperitoneally into individuals of the C57/BL syngeneic mouse strain (7). When left untreated such mice develop massive tumors in the immediate area of injection as well as secondary metastases throughout the animal—including in the liver and the lungs. These malignant growths result in the early death of the animals. Moreover, the resulting malignant growths are made up of darkly pigmented malignant melanocytes—making their assessment convenient and highly reliable. We will henceforth refer to this as the “B-16 system”.
Second, a group of animals were injected at a subcutaneous site with B-16 cells. […] As this time, one group oL animals (experimentals) began a twice-daily series of injections of the bis-acetyl lipoate derivative (100 mg/kg in 100 ul of isotonic saline) and a second set (controls) of corresponding injections of the saline solvent alone. [See EXAMPLES 2, 8 and 11 for the details of bis-acetyl lipoate derivative.]
Third, in several animals subcutaneous tumors were produced as in the preceding paragraph. After the tumors had grown to visible, palpable size, these animals received both a twice daily IP (systemic) dose of 50 mg/kg of bis-benzoyl lipoate as well as a twice daily direct injection a second dose of the same volume directly into the tumor mass.

Another series relates to HeLa cells. Nature of the series: killing of HeLa cells with or without dichloroacetate (DCA). Particulars: compound ca. twofold above threshold killing dose plus 5 mM DCA. The format is cell-based. As to the method: HeLa cells were plated at moderate densities and allowed to attach and grow for ca. 24 hours in a series of wells in a multi-well tissue culture plate. To individual wells of the first subset (control) were added bis-acetyl lipoate, mono-acetyl lipoate or bis-benzoyl lipoate—each at ca. twofold above the threshold killing dose (EXAMPLE 11). To an equivalent (experimental) subset of wells were added these same compounds at the same dose together with the simultaneous addition of DCA to 5 mM final concentration.

As to `NC(=O)CSCCC(CCCCC(=O)O)SCC(N)=O` (centres unmarked) [bis carbamoyl lipoate, 6,8-Biscarbamoylmethylmercaptooctanoic acid], the “cells killed by treatment” value in the series on Hep G2 is “+”.

Take `CN1C(=O)CC(SCCC(CCCCC(=O)O)SC2CC(=O)N(C)C2=O)C1=O` (stereo not drawn) [bis methyl sucimimido lipoate, 6,8-Bis-[S-(N-methylsuccinimido)]mercaptooctanoic acid]: the “cells killed by treatment” value with LnCap (Prostate), in the series with B16 (Skin), in the series on HeLa (Cervix), in the series with Hep G2, in the series with SW480 (Colon) and with RD (Embryo) was “+” throughout. Moreover, the “cells killed by treatment” value in the series with Saos 2 (Bone), in the series on A549 (Lung) and in the series with MCF 7 (Breast) was “+” each time.

The term LD50 denotes the dose at which mortality reaches 50%. The compound `CC(=O)SCCC(CCCCC(=O)O)SC(C)=O` (centres unmarked) [bis-acetyl lipoate, 6,8-bisacetylmercaptooctanoic acid] registered a threshold killing concentration in the series on cancer cells in culture of 600 mg/L. Also, the “cells killed by treatment” value in the series with LnCap (Prostate), in the series with B16 (Skin), with HeLa (Cervix), in the series on Hep G2, in the series on SW480 (Colon) and with RD (Embryo) was “+” in each case. The “cells killed by treatment” value in the series with Saos 2 (Bone) is recorded as “+”; in the series with A549 (Lung) it was “+”; in the series with NIH 3T3 ras transformed it was “+/−”; in the series with MCF 7 (Breast), “+”. Also, in the series with C57/BL mice, the maximum well-tolerated dose result is “ca. 200 mg/kg”. The same compound came in with an LD50 in series [1] of approximately 500 mg/kg. For the same compound, the “response of subcutaneous tumor” value in the series on B-16 melanoma was “palpable softening and apparently partial liquification of the tumor mass followed by a stabilization or a reduction in size”. In the series on HeLa cells, the “speed of cell killing with DCA relative to compound alone” value is recorded as “approximately twvice as rapidly”.

`O=C([O-])CCCCC(O)CCO.[Na+]` (centres unmarked) [dihydroxy octanoic acid, Sodium 6,8-Dihydroxyoctanoate, reference compound]: the “effect on cells in culture” value in the series with cancer cells in culture (tested up to 5 mM (3200 ug/ml), cell lines of Table 1) was “without detectable effect”.

`CC(=O)SCCC(S)CCCCC(=O)O` (centres unmarked) [monoacetyl lipoate, 8-acetylmercapto-6-mercaptooctanoic acid]: the threshold killing concentration with cancer cells in culture came to 100 mg/L. Further, the “cells killed by treatment” value in the series with LnCap (Prostate), in the series with B16 (Skin), with HeLa (Cervix), with Hep G2, with SW480 (Colon) and in the series on RD (Embryo) was “+” throughout. Also, the “cells killed by treatment” value in the series on Saos 2 (Bone), in the series with A549 (Lung), in the series with NIH 3T3 ras transformed and in the series with MCF 7 (Breast) was “+” in each case. The “speed of cell killing with DCA relative to compound alone” value in the series with HeLa cells is recorded as “approximately twvice as rapidly”.

Source of the values: US6951887B2 (The Research Foundation of State University of New York, priority 1998, dated 2005).
